Legend:
[1] = biological target: T1, GA from A. awamori (Aspergillus awamori, UniProt P69327); test: Effect of cosolvent solution viscosity on kcat of GA (maltose hydrolysis); assay type: biochemical; details: maltose hydrolysis at 45° C.; for Effect of solution viscosity on kcat (in words): PEG200 viscosities up to 14 cp, PEG8000 up to 18 cp
T1 construct: made in house; host or cells: Saccharomyces cerevisiae
Procedure: (§1) Kinetic assays were performed either at 45° C. or at 60° C., in 0.05M sodium acetate buffer (pH 4.5), using a substrate, i.e., maltose, concentration of 20 mM. The substrate concentration was sufficiently above the Km value so that the measured rate was directly proportional to kcat.
(§2) The cosolvent solutions were prepared from a concentrated cosolvent mixture by dilution to the final concentrations ranging from 0-90% (w/v), into the appropriate reaction buffer solution. The buffer solutions were titrated for pH prior to addition of cosolvent. All of the solutions were equilibrated at 45° C. (or 60° C.) in a water bath, and the reaction was started by the addition of a 25 μl aliquot of enzyme. Reaction aliquots were removed at various times, and the reaction was stopped by the addition of 2.5M Trizma base (pH 7.0). All of the reactions were performed in duplicate. The rates were determined by measuring the concentration of the released glucose by the glucose oxidase method, using the Glucose Oxidase Kit (Sigma), as modified for microtiter plate assays, at OD450 nm (Fox et al, Anal. Biochem., 195:93-96 (1991); and Palcic et al, Carbohydr. Res., 250:87-92 (1993)), and using an EL 340 biokinetics reader (BIOTEK Instruments; Winooski, Vt.).
All buffers of various cosolvent concentrations were filtered before use. Viscosity and density measurements were performed using an Ostwald Capillary Viscometer at 45° C. The densities of the various buffer solutions were obtained by replicate weighing of one milliliter volumes of buffer.
As discussed above, if product release is the rate-limiting step in the GA mechanism, there should be a dependence of the kcat value on solution viscosity. If a conformational change associated with the product release is limiting the reaction rate, the relationship between kcat and viscosity, μ, should be μ^-δ (Demchenko et al, supra). This relationship is based on the Kramers' theory (Kramers, supra) which postulates that diffusional motion in a random field controls the rate at which the enzyme complex will pass over the activation energy barrier. […] This relationship is based on the theory that the dissociating product must have a certain minimal kinetic energy to escape some characteristic volume in the enzyme active site. Once the product has exited from the characteristic volume, the product has a very low probability of reassociating. If the former relationship is valid, plots of ln(kcat) vs ln(μ) for the various cosolvents should be linear with a slope of -δ, whereas if the latter is true plots of ln(kcat) vs (μ)^2 should be linear with a slope corresponding to -γ.

[2] = biological target: T1, GA from A. awamori; test: GA activity assay: maltose hydrolysis in the presence of cosolvents; assay type: biochemical; details: maltose hydrolysis by GA at 45° C.; for Corresponding cosolvent concentration at maximum percent increase in kcat: 0.05M sodium acetate buffer pH 4.5, 20 mM maltose; for kcat: at cosolvent concentration of maximum increase
Procedure: GA was produced in Saccharomyces cerevisiae and obtained, as described by Natarajan et al, Biochem., 35:3050-3058 (1996).
as §1, with “kcat. The enzyme concentrations used in the reaction mixtures were 35 μg/ml and 3.5 μg/ml for the 45° C. and 60° C. experiments, respectively.” for “kcat.”
as §2
Glucose standards at each of the various cosolvent concentrations were run parallel to each reaction so that any effect of the cosolvents on the glucose assay could be subtracted out.

T1 sequence (P69327 25-640): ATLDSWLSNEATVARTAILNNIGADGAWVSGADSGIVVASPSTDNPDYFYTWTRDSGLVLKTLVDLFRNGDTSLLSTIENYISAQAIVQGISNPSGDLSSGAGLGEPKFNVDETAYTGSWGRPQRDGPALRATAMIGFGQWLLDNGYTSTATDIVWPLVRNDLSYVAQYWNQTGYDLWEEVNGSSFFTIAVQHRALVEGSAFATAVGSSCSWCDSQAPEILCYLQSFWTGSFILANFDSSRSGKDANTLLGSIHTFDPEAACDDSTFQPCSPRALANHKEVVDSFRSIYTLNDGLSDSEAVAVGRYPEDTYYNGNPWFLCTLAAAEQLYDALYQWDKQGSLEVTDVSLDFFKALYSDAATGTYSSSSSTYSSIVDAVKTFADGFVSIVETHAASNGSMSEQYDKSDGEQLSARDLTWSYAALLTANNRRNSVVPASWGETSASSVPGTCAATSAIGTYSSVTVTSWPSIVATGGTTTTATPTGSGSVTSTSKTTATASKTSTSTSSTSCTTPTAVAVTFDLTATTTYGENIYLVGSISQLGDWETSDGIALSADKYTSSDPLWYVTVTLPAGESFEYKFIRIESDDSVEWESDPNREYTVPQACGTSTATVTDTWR

Row | Structure (SMILES) | Solution viscosity at which GA activity starts to decrease significantly [1] | Slope of plot of ln(kcat) vs (μ)^2 ([1]; FIGS. 4A-4G) | Effect of solution viscosity on kcat (in words) [1] | Cosolvent concentration of peak (largest) increase in kcat [2] | Maximum percent increase in kcat over control value without cosolvent [2] [%] | Corresponding cosolvent concentration at maximum percent increase in kcat [2] [%] | kcat [2] [s⁻¹] | Effect of cosolvent on kcat (in words) ([2]; FIGS. 1A-1G)
1 | OCCO [EG, ethylene glycol] | around 3.5 cp | -0.06 | substantially decreased kcat | around 50 % (w/v) | 32 | 50 | 12.4 | 
2 | OCC(O)CO [Glycerol, glycerol, reference compound] | around 3.5 cp |  | substantially decreased kcat |  | 11 | 1.0 | 10.4 | only a minor increase in kcat

Source: US5888781A, “Method for increasing the hydrolytic activity of starch hyrdolases” (University of Maryland Baltimore County, priority 1997, dated 1999)
